This is an account of results in patent US20260109725A1, “MACROLIDE SENOLYTIC COMPOUNDS” (LUNELLA BIOTECH, INC., priority 2022, published 2026).

In assay [1] the test system is Acinetobacter baumannii ATCC 17978. Briefly: in vitro broth microdilution assay (MIC). Type of assay: cell-based. To be noted: ATCC17978. How it is done:
(§1) This is advantageous because use of the compounds of the present approach as therapeutic agents will have less of an impact on the development of antibiotic resistance. For example, embodiments of the present approach were screened for antibiotic activity, using the in vitro broth microdilution assay. […] The assay conditions, described by the Clinical and Laboratory Standards Institute were used for preparation of the inoculum, growth medium, and end point reading. Test substance was dissolved in 100% DMSO, suspended completely by vortexing, diluted by 2-fold serial titrations in the same vehicle, for a total of 11 test concentrations. A 4 μL aliquot of each dilution was added to 196 μL of broth medium seeded with the organism suspension in wells of a 96 well plate (bacterial count: 2-8×10(5) colony forming units/mL final). The final volume was 200 μL in each well and the final DMSO concentration was 2 percent. Test concentrations were 0.1 to 100 μM. Following incubation, the test plates were visually examined and wells were scored for growth or complete growth inhibition to define the minimum inhibitory concentration. Each test substance was evaluated with replicates. Vehicle controls and an active reference agent were used as blank and positive controls. Note that MRSA represents methicillin-resistant Staphylococcus aureus, and VRE represents vancomycin resistant Enterococcus.
A general note: Dilution methods test growth across graded concentrations, often in twofold steps.

In assay [2] the test system is Enterococcus faecalis ATCC 29212. Briefly: in vitro broth microdilution assay (MIC). Type of assay: cell-based. The conditions noted are these: ATCC29212; Enterococcus faecalis ATCC 29212, QC strain. The method, then: as §1
Assay [3] relates to Enterococcus faecium ATCC 700221 VanA VRE. Description: in vitro broth microdilution assay (MIC). Type of assay: cell-based. The method, then: as §1
In assay [4] the test system is Escherichia coli ATCC 25922. Description: in vitro broth microdilution assay (MIC). Type of assay: cell-based. The conditions noted are these: ATCC25922; Escherichia coli ATCC 25922, QC strain. How it is done:
as §1

Assay [5] concerns Escherichia coli JW5503 DEL-tolC. Briefly: in vitro broth microdilution assay (MIC). In kind it is cell-based. To be noted: JW5503DELTOLC. The method, then: as §1
Assay [6] has as its system Haemophilus influenzae ATCC 49247. Briefly: in vitro broth microdilution assay (MIC). In kind it is cell-based. The conditions noted are these: ATCC49247; Haemophilus influenzae ATCC 49247, QC strain. The method, then: as §1
Assay [7] has as its system Klebsiella pneumoniae ATCC 43816. Briefly: in vitro broth microdilution assay (MIC). In kind it is cell-based. To be noted: ATCC43816. The method, then:
as §1

The subject of assay [8] is Pseudomonas aeruginosa ATCC 27853. Description: in vitro broth microdilution assay (MIC). In kind it is cell-based. To be noted: ATCC27853; Pseudomonas aeruginosa ATCC 27853, QC strain. The method, then:
as §1

Assay [9] has as its system Staphylococcus aureus ATCC 29213. Description: in vitro broth microdilution assay (MIC). To be noted: ATCC29213; Staphylococcus aureus ATCC 29213, QC strain. In kind it is cell-based. The method, then:
as §1

For assay [10], the system named is Staphylococcus aureus ATCC 33591 MRSA. Briefly: in vitro broth microdilution assay (MIC). Type of assay: cell-based. The method, then:
as §1

Assay [11] concerns Streptococcus pneumoniae ATCC 49619. Description: in vitro broth microdilution assay (MIC). Type of assay: cell-based. The conditions noted are these: ATCC49619; Streptococcus pneumoniae ATCC 49619, QC strain. The method, then:
as §1

A further assay relates to control MRC-5 cells. Description: xCELLigence assay, control MRC-5 cells. The conditions noted are these: 50 μM, 5 days. Type of assay: cell-based, human. An excerpt: (§2) Senescent cells undergo the so-called senescence-associated secretory phenotype (SASP), which involves dramatic increases in the synthesis and secretion of proteins. The xCELLigence assay system was used to assess whether protein measurement assays under-estimate the senolytic activity of tested compounds. […] The real-time xCELLigence assay system thus compliments the more static SRB assay, and offers a more direct visualization of the potential senolytic effects of compounds during drug screening.
(§3) The xCELLigence assay was used to confirm senolytic activity for Compound [I]. MRC-5 fibroblasts were used for the assay. […] The data is expressed as the final cell index, the average±the standard error of mean, for the control cells, control cells treated with Compound [I], BrdU-treated control cells, and BrdU-treated fibroblasts subjected to Compound [I] at 50 μM, respectively. The senescent MRC-5 cells were pretreated with BrdU for 8 days to induce senescence, before exposure to Compound [I] for another 5 days. Compared to the control, Compound [I] treatment had no effect on the viability of normal fibroblasts, but killed over 90% of the BrdU-treated fibroblasts.
(§4) xCELLigence Assay System: xCELLigence RTCA System (ACEA Biosciences Inc.). […] This approach allows the quantification of the onset and kinetics of the cellular response. […]

Assay [12] relates to MRC-5 cells treated with BrdU. Briefly: xCELLigence assay, BrdU-treated MRC-5 cells. To be noted: 50 μM, 5 days after 8 days BrdU, compared to the control. Type of assay: cell-based, human.
Source text: as §2, §3, §4

The next assay relates to normal MRC-5 cells. Briefly: Images of MRC-5 fibroblasts without BrdU pre-treatment. Type of assay: cell-based, human. The conditions noted are these: 50 μM. How it is done: (§5) FIGS. 3A and 3B are images of MRC-5 fibroblasts without and with BrdU pre-treatment, respectively, treated with Compound [I] at a concentration of 50 μM. […] The scale bar in the upper-right of FIGS. 3B and 3C represents 20 μm.
(§6) BrdU Assay: Cells were plated into 24-well plates. Next day, half of the plate was treated with 100 μM of BrdU while control wells were treated with vehicle only (DMSO) and incubated for 8 days at 37° C. in a 5% CO2 humidified atmosphere. After 8 days of BrdU treatment cells were treated with various test compounds or drugs (e.g., azithromycin, roxithromycin, telithromycin, erythromycin, etc.) for another 3-5 days. BrdU or vehicle treatments were continued during the drug treatments as well.

For another assay, the system named is senescent MRC-5 cells. Description: Images of MRC-5 fibroblasts with BrdU pre-treatment. The conditions noted are these: 50 μM. In kind it is cell-based, human. The method, then:
as §5, §6

With `CC[C@H]1OC(=O)[C@H](C)[C@@H](O[C@@H]2C[C@@](C)(OC)[C@@H](O)[C@H](C)O2)[C@H](C)[C@@H](O[C@@H]2O[C@H](C)C[C@H](N(C)C)[C@H]2OC(=O)OCc2ccc(O[C@@H]3O[C@H](COC(C)=O)[C@H](OC(C)=O)[C@H](OC(C)=O)[C@H]3OC(C)=O)c([N+](=O)[O-])c2)[C@](C)(O)C[C@@H](C)CN(C)[C@H](C)[C@@H](O)[C@]1(C)O` [Compound [I], [(2R,3S,4S,5R,6S)-3,4,5-triacetoxy-6-[4-[[(2S,3R,4S,6R)-4-(dimethylamino)-2-[[(2R,3S,4R,5R,8R,10R,11R,12S,13S,14R)-2-ethyl-3,4,10-trihydroxy-13-[(2S,4R,5S,6S)-5-hydroxy-4-methoxy-4,6-dimethyl-tetrahydropyran-2-yl]oxy-3,5,6,8,10,12,14-heptamethyl-15-oxo-1-oxa-6-azacyclopentadec-11-yl]oxy]-6-methyl-tetrahydropyran-3-yl]oxycarbonyloxymethyl]-2-nitro-phenoxy]tetrahydropyran-2-yl]methyl acetate], the MIC in [1] is 100 µM; in assay [2], 25 µM; in [3], above 100 µM; in assay [4], 12.5 µM; in assay [5] it was 6.25 µM; in [6], 3.12 µM. The MIC in assay [7] is 50 µM; in [8], above 100 µM; in assay [9], 6.25 µM; in assay [10], above 100 µM; in assay [11], 0.78 µM. Moreover, in the assay with control MRC-5 cells, the “effect on viability of normal fibroblasts (xCELLigence final cell index)” value was “no effect”. In addition, the “BrdU-treated fibroblasts killed (xCELLigence final cell index)” value in assay [12] is given as “over 90%”. Moreover, the “effect on normal MRC-5 cells (images)” value with normal MRC-5 cells was “little effect”. The “effect on senescent MRC-5 cells (images)” value in the assay on senescent MRC-5 cells is given as “induced cell death”.
